Among the data in a melting point compilation (Tetko et al.; mined from patent text by program, amines drawn as free bases though some values may be those of a salt) are melting point values, retold here.

Structures are written as SMILES. Where only a bound is given, the exact number is not on record here.

For orientation: melting point means the temperature, or range, at which the solid turns liquid.

`CN(C)C(=O)c1c(-c2ccc3ccccc3c2)ccc2ccccc12` showed a melting point of 168 to 169 °C. The compound `Cc1ccc(C2CCN(C(=O)CCC(=O)c3ccc4c(c3)CCN(C)CC4)CC2)cc1` showed a melting point of 111 to 112 °C. As for `COc1ccc2c(C)c(C)oc2c1C=O`, the melting point came out at 88 °C. `Cc1ccc(-c2c(CNC(=O)OC(C)(C)C)c(CC(C)(C)C)nc(C)c2C(=O)O)cc1`: the melting point lay within 216 to 217 °C. `COc1ccc(CNC(Nc2ccccc2)=C(C#N)C(=O)OC(C)(C)C)cc1` returned a melting point of 158 to 159 °C. The same measure for `Cc1cc(-c2nc3cccnn3c2-c2ccnc(NC(=O)CCS(C)(=O)=O)c2)ccc1F`: 227 to 228 °C; for `CCOC(=O)c1cc(-c2ccc(OC)cc2)nn(CC=Cc2ccc(Cl)cc2)c1=O`: 127 to 128 °C. `Cc1ccc2c(NCc3ccc(NC(=O)C4CCN(Cc5ccccc5)CC4)cc3)nc(N3CCCC3)nc2c1` yielded a melting point of 96 °C.

Take `CCCOc1ccc(S(=O)(=O)N2CCN(CCC)CC2)cc1-c1nc2cc3ncn(Cc4ccccc4)c3cc2c(=O)[nH]1`: the melting point is 194 to 195 °C. On to `CCOc1ccc(-c2nc(CCl)cs2)cc1OCC`, for which the melting point is 81.5 to 82.3 °C. `O=C(O)Cc1c(C(=O)c2cccc(OCc3ccccc3)c2)[nH]c2cc(Cl)ccc12`: the melting point was 174 to 177 °C. As for `CC1(C)CCc2c(N3CCOCC3)nc3sc4c(NCc5ccccn5)ncnc4c3c2C1`, the melting point amounted to 218 °C. The same measure for `Cc1nc2c(N)nc3ccccc3c2n1CC1(O)CCCCC1`: above 250 °C; for `S=C(NCCCN1CCCC1)NCCCN(Cc1ccc(Cl)c(Cl)c1)c1ccc(Br)cn1`: 122 to 124 °C.

Turning to `CCCc1nn(C)c2c(=O)[nH]c(Cc3cccc(N)c3)nc12`, the melting point fell in the range of 207 to 210 °C. `Cc1ccc(Nc2ccccc2NC(=O)CCCc2ccc(N=C(N)c3cccs3)cc2)cc1`: the melting point is 66 to 68 °C. As to `CCc1cc(C#N)c(=O)[nH]c1COCc1ccccc1`, the melting point fell in the range of 141 to 143 °C. Turning to `COc1cc(C(=O)CCl)ccc1O`, the melting point fell in the range of 102 to 103 °C. The same measure for `COc1ccc(C2=NCC(NN)=Nc3ccc(Cl)cc32)cc1`: 213 to 215 °C; for `CCNc1nc(C)c(-c2ccnc(Nc3ccc(N4CCSCC4)cc3)n2)s1`: 207 to 209 °C. In turn, `Cc1nc(NCC(F)(F)F)c2nc(-c3ccccc3)cc-2[nH]1` registered a melting point above 310 °C. The compound `CN1C(=O)C(NC(=O)Nc2cccc([N+](=O)[O-])c2)N=C(c2ccccc2)c2ccccc21` (stereo not given) came in with a melting point of 288 to 289 °C.

`CC(=Cc1cc([N+](=O)[O-])ccc1Cl)C(=O)O` yielded a melting point of 228 to 230 °C. On to `CCc1cc(Nc2ccc(C(Cc3ccccc3)C(=O)O)cc2)n2nccc2n1` (stereo not given), for which the melting point was in the range of 195 to 197 °C. On to `COP1(=O)C=Cc2ccccc21` (stereo not given), for which the melting point was in the range of 89 to 90 °C. The compound `CN1C(=O)[C@@H](NC(=O)OC(C)(C)C)COc2ccccc21` gave a melting point of 152 °C.

Consider `CCCCC(O)c1cccc(O)c1` (stereo not given), for which the melting point was 120 to 122 °C. `CCCCCCCCC1(CCCCCCCC)c2cc(Cl)ccc2-c2ccc(Cl)cc21` displayed a melting point of 50 to 51 °C. `O=C(O)c1cnc2ncnn2c1S`: the melting point was 247 to 249 °C.

Take `CCN1c2ncccc2C(=O)Nc2c(C)cc(-n3ccnc3)nc21`: the melting point was 243 to 245 °C.

In the case of `CCCCNC(=O)c1ccc2c(=O)nc(-c3ccccn3)sc2c1`, the melting point came to 194 °C. Turning to `Cc1cccc2c1NC(=O)C(CCCN1CCN(c3ccc(F)cc3)CC1)S2` (stereo not given), the melting point was in the range of 116 to 117 °C. Turning to `CCn1cc(C(=O)O)c(=O)c2cc(F)c(N3CCC(CN(C)C)C3)c(F)c21` (stereo not given), the melting point was in the range of 204 to 206 °C. Regarding `CCc1nc2c(N)nc3ccccc3c2n1CC1(O)CCN(C)CC1`, the melting point was 233 to 234 °C.

On to `Cc1ccc(C)n1N1C(=O)c2ccccc2C1=O`, for which the melting point fell in the range of 182 to 184 °C. `CCOc1ccc(C)c(NCc2ccccc2)c1` had a melting point of 69 to 71 °C. The compound `Cc1cc(-c2nc3cccnn3c2-c2ccnc(NC(=O)c3ccc(Cl)cc3)c2)ccc1F` registered a melting point of 207 to 209 °C. `CC1CCN(c2ccccc2C(=O)c2ccccc2)CC1` showed a melting point of 82 °C. Next, `OCC1CN(Cc2ccccc2)CCc2c1[nH]c1ccccc21` (stereo not given): 95 °C; `Cc1cc(C)c2c(c1)cc(C(=O)O)n2CC(=O)OC(C)(C)C`: 210 °C; `Cc1c(Cl)c(C(=O)O)cc([N+](=O)[O-])c1Cl`: 152 to 154 °C. Take `COc1cc2ncnc(N3CCN(C(=O)Nc4ccc(N5CCOCC5)cc4)CC3)c2cc1OC`: the melting point is 254 to 256 °C. The same measure for `Oc1ccc2c(c1)CCCC2n1cc[nH]c1=S` (stereo not given): 213 to 215 °C; for `CCOC(=O)C1=C(C)NC(C)=C(C(=O)OC(C)C)C1c1cccc([N+](=O)[O-])c1` (stereo not given): 148 °C; for `O=C(c1ccc(F)cc1)C1CCN(CCn2c(=O)c3ccccc3n(-c3ccccc3)c2=O)CC1`: 166 °C. For the compound `O=C(O)c1cc(S)cc(C(=O)O)c1`, the melting point is 240 to 246 °C.

`CNS(=O)(=O)c1ccc(N2CC(CO)OC2=O)cc1` (stereo not given) gave a melting point of 164 to 166 °C. In turn, `CC(NC(=O)Cc1cc(F)cc(F)c1)C(=O)NC1C(=O)NC(c2ccncc2)c2ccccc21` (stereo not given) registered a melting point of 100 °C. Next, `COc1ccc(C=CC(C)=O)cc1OC`: 78 to 80 °C. `CN(C)CCNC1=CC(=O)c2nc(-c3ccc(F)cc3)sc2C1=O` yielded a melting point of 246 to 247 °C. `COC(C)(CC(=O)Nc1cccc(OCc2ccccc2)c1)OC` registered a melting point of 83 °C. Compound `CC(C)C1C(=O)N(Cc2ccccc2)S(=O)(=O)N1C` (stereo not given) showed a melting point of 52.5 to 54 °C.

For the compound `O=[N+]([O-])c1ccc2c(c1)N=Cc1ccccc1O2`, the melting point lay within 179 to 181 °C. `CC(=O)Nc1cc(F)c([N+](=O)[O-])cc1F` displayed a melting point of 188 to 189 °C.

`CC1(C(=O)c2c[nH]c3ncc(-c4cccc(N5CCN(S(N)(=O)=O)CC5)c4)nc23)CCCCC1`: the melting point lay within 233 to 235 °C.

`CC(C)(C)C(=O)C(Oc1ccccc1)C(=O)Nc1ccc(Cl)cc1Cl` (stereo not given) had a melting point of 112 to 114 °C.

With `CO[C@]1(c2csc(Sc3ccc(/C(C)=N/O)cc3)c2)CCO[C@@H]1C` (racemic), the melting point lay in the range of 89 to 90 °C. Regarding `CC1CC(=O)NN=C1c1ccc(NC(=O)OC2CCC2)cc1` (stereo not given), the melting point is 245 to 246 °C.

The compound `C(#Cc1cnc(-c2cccs2)s1)c1ccccc1` registered a melting point of 94 to 96 °C.

The compound `O=C(O)c1cc(O)c2c(c1)C(=O)c1ccc(F)c(O)c1C2=O` gave a melting point above 275 °C. The compound `CN(C)NC(=O)N(OCc1ccccc1)C1c2ccccc2Oc2ccccc21` came in with a melting point of 117 °C. For the compound `CCOC(=O)C1=C(O)CCn2c1nc1ccccc12`, the melting point was in the range of 233 to 235 °C. The same measure for `Cc1ccc(OCC(=O)c2ccc3c(c2)C(C)(C)CCC3(C)C)cc1O`: 144 to 145 °C. `CC1CC(=O)c2ccc(C(C)C(=O)O)cc2C1` (stereo not given) returned a melting point of 196 to 199 °C.

On to `CCn1cnc2c(Nc3cccc(C(F)(F)F)c3)nc(NCCCO)nc21`, for which the melting point was in the range of 136 to 137 °C. `NC(=O)c1cc(Oc2ccc3c(C(=O)Nc4cccc(C(F)(F)F)c4)cccc3c2)ccn1` came in with a melting point of 117 to 120 °C. The same measure for `CC(C(=O)O)c1cccc(NC(=O)NCC(=O)N2[C@@H](c3cccc(F)c3F)SC[C@H]2C(=O)OC(C)(C)C)c1` (stereo not given in full): 130 °C; for `CON=C(C)C(=NOCc1ccccc1)C(=O)O`: 88 to 89 °C. In the case of `CC1(c2ccccc2)OC(C=Cc2ccccn2)=CC1=O` (stereo not given), the melting point was in the range of 74.5 to 76 °C. Next, `CC(C)c1ccc(NC(=O)C2CCCc3c(OCc4ccccc4)cccc32)cn1` (stereo not given): 157 °C; `CCN(CC)c1ccc(C2(c3ccc(N(CC)CC)cc3N(CC)CC)OC(=O)c3ccccc32)c(Cl)c1` (stereo not given): 141 to 143 °C. `CNc1nc2ccc(OC(F)(F)F)cc2s1`: the melting point stood at 162 °C. The compound `Cc1c(C)c2c(c(C)c1O)CCC(C)(CCOC(=O)C(C)c1ccc(-c3ccccc3)c(F)c1)O2` (stereo not given) returned a melting point of 85 to 87 °C.

With `Cc1c(C)c(CC(C)(C)C#N)c(C)c(C)c1CC(C)(C)C#N`, the melting point was in the range of 187 to 190 °C. Take `CCCCc1nc2cnc3ccccc3c2n1CC1(O)CCOCC1`: the melting point lay in the range of 180 to 181 °C.

The compound `CCCCCCCC1CCC(CC(C#N)c2ccc(Br)cc2)CC1` (stereo not given) had a melting point of 56 to 57 °C. Compound `Cc1noc2cc3c(cc12)C1(CO3)C(=O)N(Cc2nc(C(=O)N(C)C)co2)c2ccccc21` (stereo not given) gave a melting point of 87 to 89 °C. Take `N#Cc1cn(C2CC2)c2c(F)c(F)c(F)cc2c1=O`: the melting point lay within 213 to 215 °C. `COc1ccc(CCCCCCCOc2ccccc2)cc1` showed a melting point of 32 to 34 °C. `Cc1nn2cccnc2c1C#N` registered a melting point of 179 to 181 °C. On to `Cc1ccc(C(O)CN(C)Cc2cc3c(=O)c(C(=O)NCc4ccc(Cl)cc4)cn(C)c3o2)o1` (stereo not given), for which the melting point fell in the range of 130 to 132 °C. Next, `Clc1ccc(C2(Cn3cncn3)OCCO2)s1`: 117 °C; `CCCCCCCCCCCCCCCCCCNC(=O)NN`: 100 °C.

Regarding `COc1ccc(N2C(=O)CCN(C)c3ccc(Cl)cc32)cc1`, the melting point is 144 to 145 °C. The compound `CC(C)(C)c1cc(CP(=O)(Oc2ccccc2)Oc2ccccc2)cc(C(C)(C)C)c1O` returned a melting point of 130 °C. `CCCOc1ccc(S(=O)(=O)N2CCN(C)CC2)cc1-c1cc2c(=O)n(C)c(=O)n(CCC)c2[nH]1` returned a melting point of 240 °C. The compound `CC(=O)c1cc(CS(C)(=O)=O)ccc1O` had a melting point of 142 to 144 °C. Compound `CN(C)Cc1nc(C(=O)O)nn1-c1ccc(Cl)cc1C(=O)c1ccccc1` came in with a melting point of 160 to 165 °C.

For `CCOC=Nc1sccc1C#N`, the melting point was 38 °C. On to `CCOC(=O)C(=NOCSC)c1csc(NC=O)n1`, for which the melting point was 130 to 131 °C.
